Measured values from patent US10780090B2, “Heteroaryl compounds useful as inhibitors of SUMO activating enzyme” (Millennium Pharmaceuticals, Inc., priority 2014, dated 2020).
Like-named read-outs stand apart in the source and are kept apart here.

Target: recombinant human SAE enzyme (Homo sapiens (Human), UniProt Q9UBT2)
Assay: SAE HTRF enzyme assay
Format: biochemical
Details: for inhibition at 0.111 µM: read-out: Percent Inhibition
Outline: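 Sumoylation of Ubc9-GST by SAE was followed at low ATP (0.5 μM), pH 7.5, 24° C. for 105 min. Product was detected by HTRF with antibody pairs against Flag and GST tags.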

[1] = SAE inhibition at compound concentration 0.111 μM
[2] = SAE inhibition, class symbols, legend in nM

Chain of recombinant human SAE enzyme (Q9UBT2 whole entry): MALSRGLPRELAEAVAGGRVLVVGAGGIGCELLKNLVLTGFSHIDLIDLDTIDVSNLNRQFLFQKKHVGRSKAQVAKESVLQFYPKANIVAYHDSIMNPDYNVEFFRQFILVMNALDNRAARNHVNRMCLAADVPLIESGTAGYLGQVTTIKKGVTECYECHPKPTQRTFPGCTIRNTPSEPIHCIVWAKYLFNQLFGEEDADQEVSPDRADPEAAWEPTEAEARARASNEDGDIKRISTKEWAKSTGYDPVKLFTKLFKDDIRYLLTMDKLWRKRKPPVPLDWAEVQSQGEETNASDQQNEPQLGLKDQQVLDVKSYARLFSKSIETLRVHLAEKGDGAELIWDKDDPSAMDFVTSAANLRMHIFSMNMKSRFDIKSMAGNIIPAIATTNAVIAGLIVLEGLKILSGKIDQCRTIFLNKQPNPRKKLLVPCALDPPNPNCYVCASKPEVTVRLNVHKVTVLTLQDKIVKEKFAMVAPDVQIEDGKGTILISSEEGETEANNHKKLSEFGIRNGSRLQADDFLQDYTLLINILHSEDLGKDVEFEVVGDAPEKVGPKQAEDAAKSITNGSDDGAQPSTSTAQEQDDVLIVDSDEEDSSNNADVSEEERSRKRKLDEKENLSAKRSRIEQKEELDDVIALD
Chain of recombinant human SAE enzyme (Q9UBE0 whole entry partner): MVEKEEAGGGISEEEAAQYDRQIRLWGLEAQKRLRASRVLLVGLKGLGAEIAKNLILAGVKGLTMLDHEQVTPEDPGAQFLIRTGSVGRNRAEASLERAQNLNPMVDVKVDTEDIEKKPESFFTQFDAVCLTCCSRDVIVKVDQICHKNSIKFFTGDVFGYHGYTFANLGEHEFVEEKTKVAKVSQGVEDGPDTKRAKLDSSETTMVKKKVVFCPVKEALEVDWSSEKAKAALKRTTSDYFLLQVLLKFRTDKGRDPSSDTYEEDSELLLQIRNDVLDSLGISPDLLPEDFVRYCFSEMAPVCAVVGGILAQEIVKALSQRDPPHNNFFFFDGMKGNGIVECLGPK

Compound | Percent Inhibition [1] [%] | IC50 [2] [nM] | Percent Inhibition (Concentration 0.111 μM) | IC50 (class symbols A/B/C) [nM] | other results
NS(=O)(=O)OC[C@H]1C[C@@H](Nc2ncncc2C(=O)c2cc([C@@H]3OCCCc4ccc(Cl)cc43)cs2)C[C@@H]1O (single isomer, unassigned) [I-314b, [(1R,2S,4R)-4-{[5-({4-[(1R)-8-chloro-1,3,4,5-tetrahydro-2-benzoxepin-1-yl]-2-thienyl}carbonyl)pyrimidin-4-yl]amino}-2-hydroxycyclopentyl]methyl sulfamate or [(1R,2S,4R)-4-{[5-({4-[(1S)-8-chloro-1,3,4,5-tetrahydro-2-benzoxepin-1-yl]-2-thienyl}carbonyl)pyrimidin-4-yl]amino}-2-hydroxycyclopentyl]methyl sulfamate] | 98 | < 10 |  |  | 
N[C@@H](c1cccc(Br)n1)c1cc(C(=O)c2cncnc2N[C@@H]2C[C@H](COS(N)(=O)=O)[C@@H](O)[C@H]2O)sc1Cl (single isomer, unassigned) [I-10a, [(1R,2R,3S,4R)-4-{[5-({4-[(R)-amino(6-bromopyridin-2-yl)methyl]-5-chloro-2-thienyl}carbonyl)pyrimidin-4-yl]amino}-2,3-dihydroxycyclopentyl]methyl sulfamate or [(1R,2R,3S,4R)-4-{[5-({4-[(S)-amino(6-bromopyridin-2-yl)methyl]-5-chloro-2-thienyl}carbonyl)pyrimidin-4-yl]amino}-2,3-dihydroxycyclopentyl]methyl sulfamate] |  |  | 100 | < 10 | 
[(1R,2S,4R)-2-hydroxy-4-({5-[(5-methyl-4-{(R)-[3-(trifluoromethyl)phenyl]sulfinyl}-2-thienyl)carbonyl]pyrimidin-4-yl}amino)cyclopentyl]methyl sulfamate and [(1R,2S,4R)-2-hydroxy-4-({5-[(5-methyl-4-{(S)-[3-(trifluoromethyl)phenyl]sulfinyl}-2-thienyl)carbonyl]pyrimidin-4-yl}amino)cyclopentyl]methyl sulfamate [I-69] |  |  | 100 | < 10 | 
NS(=O)(=O)OC[C@H]1C[C@@H](Nc2ncncc2C(=O)c2cc([C@H](O)c3cccc(Cl)c3)co2)C[C@@H]1O (single isomer, unassigned) [I-42b, {(1R,2S,4R)-4-[(5-{4-[(R)-(3-chlorophenyl)(hydroxy)methyl]-2-furoyl}pyrimidin-4-yl)amino]-2-hydroxycyclopentyl}methyl sulfamate or {(1R,2S,4R)-4-[(5-{4-[(S)-(3-chlorophenyl)(hydroxy)methyl]-2-furoyl}pyrimidin-4-yl)amino]-2-hydroxycyclopentyl}methyl sulfamate] |  |  | 99 | < 10 | 
NS(=O)(=O)OC[C@H]1C[C@@H](Nc2ncncc2C(=O)c2cc([C@@H]3OCc4ccc(Cl)cc43)c(Cl)s2)C[C@@H]1O (single isomer, unassigned) [I-310a, [(1R,2S,4R)-4-{[5-({5-chloro-4-[(1R)-6-chloro-1,3-dihydro-2-benzofuran-1-yl]-2-thienyl}carbonyl)pyrimidin-4-yl]amino}-2-hydroxycyclopentyl]methyl sulfamate or [(1R,2S,4R)-4-{[5-({5-chloro-4-[(1S)-6-chloro-1,3-dihydro-2-benzofuran-1-yl]-2-thienyl}carbonyl)pyrimidin-4-yl]amino}-2-hydroxycyclopentyl]methyl sulfamate] | 27 | 100 to 1000 |  |  | 
C[C@](N)(c1cccc(Cl)c1)c1csc(C(=O)c2cncnc2N[C@@H]2C[C@H](COS(N)(=O)=O)[C@@H](O)C2)c1 (single isomer, unassigned) [I-12b, [(1R,2S,4R)-4-{[5-({4-[(1S)-1-amino-1-(3-chlorophenyl)ethyl]-2-thienyl}carbonyl)pyrimidin-4-yl]amino}-2-hydroxycyclopentyl]methyl sulfamate or [(1R,2S,4R)-4-{[5-({4-[(1R)-1-amino-1-(3-chlorophenyl)ethyl]-2-thienyl}carbonyl)pyrimidin-4-yl]amino}-2-hydroxycyclopentyl]methyl sulfamate] |  |  | 100 | < 10 | 
Cc1ccc(Cc2csc(C(=O)c3cncnc3N[C@@H]3C[C@H](COS(N)(=O)=O)[C@@H](O)C3)c2)o1 [I-237, [(1R,2S,4R)-2-Hydroxy-4-{[5-({4-[(5-methyl-2-furyl)methyl]-2-thienyl}carbonyl)pyrimidin-4-yl]amino}cyclopentyl]methyl sulfamate] |  |  |  | 100 to 1000 | inhibition at 0.111 µM (Concentration 0.111 μM): 25%
CO[C@H](c1cccc(Cl)c1)c1cc(C(=O)c2cncnc2N[C@@H]2C[C@H](COS(N)(=O)=O)[C@@H](O)C2)sc1Cl (mixture of isomers) [I-90, [(1R,2S,4R)-4-{[5-({5-chloro-4-[(R)-(3-chlorophenyl)(methoxy)methyl]-2-thienyl}carbonyl)pyrimidin-4-yl]amino}-2-hydroxycyclopentyl]methyl sulfamate and [(1R,2S,4R)-4-{[5-({5-chloro-4-[(S)-(3-chlorophenyl)(methoxy)methyl]-2-thienyl}carbonyl)pyrimidin-4-yl]amino}-2-hydroxycyclopentyl]methyl sulfamate] |  |  | 97 | < 10 | 
Cc1sc(C(=O)c2cncnc2N[C@@H]2C[C@H](COS(N)(=O)=O)[C@@H](O)C2)cc1[C@@H]1OCCc2oc(Cl)cc21 (mixture of isomers) [I-298, [(1R,2S,4R)-4-{[5-({4-[(4R)-2-chloro-6,7-dihydro-4H-furo[3,2-c]pyran-4-yl]-5-methyl-2-thienyl}carbonyl)pyrimidin-4-yl]amino}-2-hydroxycyclopentyl]methyl sulfamate and [(1R,2S,4R)-4-{[5-({4-[(4S)-2-chloro-6,7-dihydro-4H-furo[3,2-c]pyran-4-yl]-5-methyl-2-thienyl}carbonyl)pyrimidin-4-yl]amino}-2-hydroxycyclopentyl]methyl sulfamate] | 96 | < 10 |  |  | 
NS(=O)(=O)OC[C@H]1C[C@@H](Nc2ncncc2C(=O)c2cc([C@@H]3OCC(F)(F)c4ccccc43)cs2)C[C@@H]1O (single isomer, unassigned) [I-293a, [(1R,2S,4R)-4-{[5-({4-[(1R)-4,4-difluoro-3,4-dihydro-1H-isochromen-1-yl]-2-thienyl}carbonyl)pyrimidin-4-yl]amino}-2-hydroxycyclopentyl]methyl sulfamate or [(1R,2S,4R)-4-{[5-({4-[(1S)-4,4-difluoro-3,4-dihydro-1H-isochromen-1-yl]-2-thienyl}carbonyl)pyrimidin-4-yl]amino}-2-hydroxycyclopentyl]methyl sulfamate] | 57 | 10 to 100 |  |  | 
Cc1sc(C(=O)c2cncnc2N[C@@H]2C[C@H](COS(N)(=O)=O)[C@@H](O)C2)cc1[C@H](N)c1cccc(Cl)c1 (single isomer, unassigned) [I-6b, [(1R,2S,4R)-4-{[5-({4-[(R)-amino(3-chlorophenyl)methyl]-5-methyl-2-thienyl}carbonyl)pyrimidin-4-yl]amino}-2-hydroxycyclopentyl]methyl sulfamate or [(1R,2S,4R)-4-{[5-({4-[(S)-amino(3-chlorophenyl)methyl]-5-methyl-2-thienyl}carbonyl)pyrimidin-4-yl]amino}-2-hydroxycyclopentyl]methyl sulfamate] |  |  | 98 | < 10 | 
NS(=O)(=O)OC[C@H]1C[C@@H](Nc2ncncc2C(=O)c2cc([S@+]([O-])c3cccc(Cl)c3)c(Cl)s2)C[C@@H]1O [I-94, [(1R,2S,4R)-4-({[5-({5-Chloro-4-[(R)-(3-chlorophenyl)sulfinyl]-2-thienyl}carbonyl)pyrimidin-4-yl]amino}-2-hydroxycyclopentyl]methyl sulfamate and [(1R,2S,4R)-4-{[5-({5-chloro-4-[(S)-(3-chlorophenyl)sulfinyl]-2-thienyl}carbonyl)pyrimidin-4-yl]amino}-2-hydroxycyclopentyl]methyl sulfamate] |  |  | 98 | < 10 | 
N[C@H](c1cccc(Br)c1)c1cc(C(=O)c2cncnc2N[C@@H]2C[C@H](COS(N)(=O)=O)[C@@H](O)C2)sc1Cl (single isomer, unassigned) [I-22b, [(1R,2S,4R)-4-{[5-({4-[(R)-amino(3-bromophenyl)methyl]-5-chloro-2-thienyl}carbonyl)pyrimidin-4-yl]amino}-2-hydroxycyclopentyl]methyl sulfamate or [(1R,2S,4R)-4-{[5-({4-[(S)-amino(3-bromophenyl)methyl]-5-chloro-2-thienyl}carbonyl)pyrimidin-4-yl]amino}-2-hydroxycyclopentyl]methyl sulfamate] |  |  | 99 | < 10 | 
Cc1cccc(Cc2csc(C(=O)c3cncnc3N[C@@H]3C[C@H](COS(N)(=O)=O)[C@@H](O)C3)n2)c1 [I-351, {(1R,2S,4R)-2-hydroxy-4-[(5-{[4-(3-methylbenzyl)-1,3-thiazol-2-yl]carbonyl}pyrimidin-4-yl)amino]cyclopentyl}methyl sulfamate] |  |  |  |  | inhibition at 0.111 µM [1]: 93%
CN1CCc2ccc(Cl)cc2[C@@H]1c1csc(C(=O)c2cncnc2N[C@@H]2C[C@H](COS(N)(=O)=O)[C@@H](O)C2)c1 (single isomer, unassigned) [I-307b, [(1R,2S,4R)-4-{[5-({4-[(1R)-7-chloro-2-methyl-1,2,3,4-tetrahydroisoquinolin-1-yl]-2-thienyl}carbonyl)pyrimidin-4-yl]amino}-2-hydroxycyclopentyl]methyl sulfamate or [(1R,2S,4R)-4-{[5-({4-[(1S)-7-chloro-2-methyl-1,2,3,4-tetrahydroisoquinolin-1-yl]-2-thienyl}carbonyl)pyrimidin-4-yl]amino}-2-hydroxycyclopentyl]methyl sulfamate] | 97 | < 10 |  |  | 
